“Also recorded” adds a separate entry of the source. Where two headings read alike, the source gives them in different places. Values belong to the compound of their own block, whether it stands above or below them.
How the values were obtained:
[1] = tested on: human sarcoma cell line U2OS; assay: Cell viability (MTT) assay, U2OS; assay type: cell-based
Protocol: (§1) Human sarcoma cell lines (RD2, RH30, U2OS) were seeded in 96-well plates at a density of 3,000 cells per well. The cells were incubated at 37° C. for a period of 24 hours. Different concentrations of LY-5 (0.1-10 μM), LY-3 (0.1-20 μM), and LLL12 (0.1-10 μM) prepared as a 20 mM stock solution in sterile DMSO were added in triplicate to the plates in the presence of 10% FBS. 3-(4,5-Dimethylthiazolyl)-2, 5-diphenyltetrazoliumbromide (MTT) was added to evaluate cell viability. The absorbance was read at 595 nm. IC50 values were determined using SigmaPlot 9.0 Software (Systat Software, Inc., San Jose, Calif.).
(§2) Alternatively, cells were seeded in 96-well plates in triplicate at a density of 3,000 cells per well and given 24 hours to adhere. Cells were then treated with varying concentrations of the inhibitors in the presence of 10% FBS. The cells were incubated for 72 hours at 37° C. 25 μl of MTT dye (Sigma, #M5655) was added to each sample and incubated for 3.5 hours. After this, 100 μl of N,N-dimethylformamide (Sigma, #D4551) solubilization solution was added to each well. The absorbance at 450 nm was read the following day. Half-Maximal inhibitory concentrations (IC50) were determined using Sigma Plot 9.0 software (Systat Software Inc.).
Table 6 below lists specific compounds as well as experimentally determined STAT3 activity in a cell-based assay. The STAT3 activity was determined using the cell viability assays with human sarcoma cell line U2OS as described above. The compounds in Table 6 were synthesized with methods identical or analogous to those described herein. The compound reference numbers (“Ref. No.”) in Table 6 correspond to the compound numbers used in Table 3.

STAT5 = assay: Western blot, STAT5 after OSM stimulation; assay type: cell-based, human; settings: MCF-7; 1 and 2.5 μM; OSM 50 ng/mL
Protocol: (§3) RH30 cells were treated with DMSO, LY-5 (0.25-1 μM) and LY-3 (0.5-2.5 μM) prepared as a 20 mM stock solution in sterile DMSO at 60% to 80% confluence in the presence of 10% FBS for 24 hours. The sarcoma cell line EW8 was treated with DMSO and LY-5 (0.5-2.5 μM) prepared as a 20 mM stock solution in sterile DMSO at 60% to 80% confluence in the presence of 10% FBS for 24 hours. MCF-7 cells and DAOY cells were treated with DMSO, 25-50 ng/ml of IL-6, LY-5 (0.25-1 μM) or LY-3 (0.5-2.5 μM) prepared as a 20 mM stock solution in sterile DMSO, protein expressions of P-STAT3 (Tyr705) and STAT3 were tested. DAOY cells were treated with DMSO, 50 ng/ml of IFN-γ, LY-5 (1-5 μM) prepared as a 20 mM stock solution in sterile DMSO, protein expressions of P-STAT3 (Tyr705) and STAT3 were tested. MCF-7 cells were treated with DMSO, 50 ng/ml of OSM, LY-5 (1-2.5 μM) or LLL12 (1-2.5 μM) prepared as a 20 mM stock solution in sterile DMSO, protein expressions of P-STAT3 (Tyr705), P-STAT1, P-STAT5, P-ERK (T202/Y204), P-AKT, STAT3 and STAT1 were tested.
MCF-7 breast cancer cells were seeded in 10 cm plates and allowed to adhere overnight. The following day, the cells were serum-starved. The cells were then left untreated or were treated with LY-5 and LLL12 (1 μM and 2.5 μM) prepared as a 20 mM stock solution in sterile DMSO or DMSO. […] The cells were harvested after 30 minutes and analyzed by Western blot.

[2] = tested on: OSM induced STAT3 phosphorylation; assay: Western blot, OSM induced STAT3 phosphorylation; assay type: cell-based, human; settings: MCF-7; 1-2.5 μM; OSM 50 ng/mL
[3] = tested on: phosphorylated STAT3 (Tyr705); assay: Western blot, constitutive STAT3 phosphorylation; assay type: cell-based, human; settings: RH30
[4] = tested on: human sarcoma cell line RH30; assay: Cell viability (MTT) assay, RH30; assay type: cell-based
Protocol: as §1, §2
(§4) Table 7 below lists specific compounds as well as experimentally determined STAT3 activity in a cell-based assay. The STAT3 activity was determined using the cell viability assays with human sarcoma cell lines (RD2, RH30, U2OS) as described above. The compound reference numbers (“Ref. No.”) in Table 7 correspond to the compound numbers used in Table 3.

[5] = tested on: IL-6 induced STAT3 phosphorylation; assay: Western blot, IL-6 induced STAT3 phosphorylation; assay type: cell-based, human; settings: MCF-7; LY-3 0.5-2.5 μM, LY-5 0.25-1 μM; 5 h; IL-6 25 ng/mL
Protocol: as §3
The cells were harvested and lysed in cold radioimmunoprecipitation assay (RIPA) lysis buffer containing […] and phosphatase inhibitor cocktail, and were subjected to SDS-PAGE. Then they were transferred to PVDF membrane. Membranes were probed with primary antibodies (1:1,000) and horseradish peroxidase (HRP)-conjugated secondary antibody (1:10,000) (Cell Signaling Technology, Beverly, Mass.). Membranes were analyzed using Enhanced Chemiluminescence Plus reagents and scanned with the Storm Scanner (Amersham Pharmacia Biotech, Inc., Piscataway, N.J.).
MCF-7 breast cancer cells were seeded in 10 cm plates and allowed to adhere overnight. The following day, the cells were serum-starved. The cells were then left untreated or were treated with LY-5 (0.25-1 μM) and LY-3 (0.5-2.5 μM) prepared as a 20 mM stock solution in sterile DMSO or DMSO. After 5 hours, the untreated and LY-5 and LY-3 treated cells were stimulated by IL-6 (25 ng/mL). The cells were harvested after 30 minutes and analyzed by Western blot. DAOY medulloblastoma cancer cells were seeded in 10 cm plates and allowed to adhere overnight. The following day, the cells were serum-starved. The cells were then left untreated or were treated with LY-5 (1-5 μM) prepared as a 20 mM stock solution in sterile DMSO or DMSO. After 2 hours, the untreated and LY-5 treated cells were stimulated by IL-6 (25 ng/mL). The cells were harvested after 30 minutes and analyzed by Western blot.

[6] = tested on: human sarcoma cell line RD2; assay: Cell viability (MTT) assay, RD2; assay type: cell-based
Protocol: as §1, §2, §4

STAT3 = STAT3 (Homo sapiens, UniProt P40763); assay: Microscale thermophoresis binding to STAT3; settings: labeled STAT3 30 nM; LY17 1.52-50,000 nM
Protocol: The method provides the dissociation constant, KD. The microscale thermophoresis experiments were carried out at NanoTemper Technologies, Inc. (Munich, Germany). In these experiments, the concentration of the NanoTemper-labeled STAT3 was kept constant (30 nM), while the concentration of the non-labeled binding partner (LY17) was varied between 1.52 nM-50,000 nM. After a short incubation the samples were loaded into MST standard glass capillaries and the MST-analysis was performed using the Monolith.NT115.

[7] = Homo sapiens, Table 2, cell line not given, read-out: IC50
[8] = Homo sapiens, Table 8, read-out: IC50 values vs. cell lines, U2OS

Sequence of STAT3 (P40763 whole entry): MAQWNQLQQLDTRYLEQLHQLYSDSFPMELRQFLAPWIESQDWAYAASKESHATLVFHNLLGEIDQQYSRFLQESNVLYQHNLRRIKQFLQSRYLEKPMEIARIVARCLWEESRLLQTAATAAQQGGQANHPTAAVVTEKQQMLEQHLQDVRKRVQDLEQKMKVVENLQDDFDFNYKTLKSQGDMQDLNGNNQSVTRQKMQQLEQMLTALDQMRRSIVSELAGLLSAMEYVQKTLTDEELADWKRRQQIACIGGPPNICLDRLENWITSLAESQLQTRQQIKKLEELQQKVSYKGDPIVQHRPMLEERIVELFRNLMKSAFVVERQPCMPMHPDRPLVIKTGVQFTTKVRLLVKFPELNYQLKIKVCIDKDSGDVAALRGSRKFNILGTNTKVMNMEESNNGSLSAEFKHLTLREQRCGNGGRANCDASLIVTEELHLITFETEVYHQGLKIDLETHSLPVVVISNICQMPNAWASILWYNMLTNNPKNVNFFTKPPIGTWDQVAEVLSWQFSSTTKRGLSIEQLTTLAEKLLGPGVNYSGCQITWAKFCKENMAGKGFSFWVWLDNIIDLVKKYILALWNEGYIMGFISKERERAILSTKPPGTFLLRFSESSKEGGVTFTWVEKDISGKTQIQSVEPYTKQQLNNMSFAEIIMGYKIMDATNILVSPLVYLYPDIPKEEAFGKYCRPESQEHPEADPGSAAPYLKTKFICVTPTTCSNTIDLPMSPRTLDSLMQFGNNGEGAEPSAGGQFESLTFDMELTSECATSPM

- IC50 [1, 7]: > 5 µM
Compound: NC(=O)NS(=O)(=O)c1ccc(NC2=CC(=O)c3c(cccc3S(N)(=O)=O)C2=O)cc1 [LY-9]

- IC50 ([1]; Table 2, cell line not given, read-out: IC50): 2.5 µM
Compound: 5,8-dioxo-6-(phenylamino)-5,8-dihydronaphthalene-1-sulfonamide [LY-7]

- Kd (STAT3): 2.42 µM
Compound: NS(=O)(=O)c1cccc2c1C(=O)C=C(Nc1ccccc1N1CCNCC1)C2=O [LY-17]

The next lines start with the compound.

Compound: 4-(naphthalen-2-ylamino)-5H-naphtho[1,8-cd]isothiazol-5-one 1,1-dioxide [LY-6]
- IC50 ([1]; Table 6, read-out: IC50): 2.5 µM

Compound: NS(=O)(=O)c1cccc2c1C(=O)c1cccc(O)c1C2=O [LLL12, 5-hydroxy-9,10-dioxo-9,10-dihydroanthracene-1-sulfonamide, reference compound]
- inhibition of STAT5 (STAT5): exhibit inhibition
- OSM induced STAT3 phosphorylation [2]: inhibit
- IC50 [1, 8]: 1 µM
- STAT3 phosphorylation at Y705 and S727 ([3]; 5 μM in DMSO or ethanol, 2 h): decrease in STAT3 phosphorylation at Y705 and S727

Compound: NS(=O)(=O)c1cccc2c1C(=O)C=C(Nc1ccccc1)C2=O [LY-7, 5,8-dioxo-6-(phenylamino)-5,8-dihydronaphthalene-1-sulfonamide]
- IC50 ([1]; Homo sapiens, Table 6, read-out: IC50): > 5 µM

Compound: O=C1C(Nc2ccc([N+](=O)[O-])cc2Cl)=CC2=NS(=O)(=O)c3cccc1c32 [LY-3, 4-((2-chloro-4-nitrophenyl)amino)-5H-naphtho[1,8-cd]isothiazol-5-one 1,1-dioxide]
- IC50 ([4]; Table 7, read-out: IC50 RH30): 1.14 µM
- IC50 ([4]; Table 8, read-out: IC50 values vs. cell lines, RH30): 1.14 µM
- IC50 [1, 7]: 1.4 µM
- IC50 ([1]; Homo sapiens, Table 7, read-out: IC50 U2OS): 1.39 µM
- IC50 [1, 8]: 1.39 µM
- IL-6 induced STAT3 phosphorylation [5]: inhibit; also recorded: blocked the stimulation
- concentration almost completely inhibiting Tyr705 phosphorylation ([3]; 16 h): 1 µM
- constitutive STAT3 phosphorylation ([3]; LY-3 0.5-2.5 μM, LY-5 0.25-1 μM, 16 h): decrease in STAT3 phosphorylation; also recorded: reduced in a dose-dependent manner
- IC50 ([6]; Table 7, read-out: IC50 RD2): 2.56 µM
- IC50 ([6]; Table 8, read-out: IC50 values vs. cell lines, RD2): 2.56 µM

Compound: O=C1C(Nc2ccccc2)=CC2=NS(=O)(=O)c3cccc1c32 [LY-2, 4-(Phenylamino)-5H-naphtho[1,8-cd]isothiazol-5-one 1,1-dioxide]
- IC50 [1, 7]: 5 µM
